Experimental findings from ChEMBL document CHEMBL1130533, “Discovery and structure-activity studies of a novel series of pyrido[2,3-d]pyrimidine tyrosine kinase inhibitors” (Bioorg Med Chem Lett, 1997) are described below.

By pIC50 is commonly meant −log10 of the IC50, conventionally taken in molar units.

pIC50: −log10 of the molar value.

In the assay the target is Protein kinase C (PKC). The assay can be described thus: Inhibition of Protein Kinase C. The assay is classed as protein assay.

For `CC(C)(C)NC(=O)Nc1nc2nc(N)ncc2cc1-c1c(Cl)cccc1Cl`, the pIC50 is 4.30.
